Several values for one entry are separate records, joined by “and”; a condition that tells them apart may be missing. Identical values can stand only once. Like-named read-outs stand apart in the source and are kept apart here. Marks after values point to notes of the source that are not given here.
Columns and labels:
influenza B RdRp [1] = target: T1, influenza B RdRp (Influenza B virus, UniProt Q5V8Y6); assay type: biochemical
[2] = target: T2, human mitochondrial RNA polymerase (h-mtRNAP) (Homo sapiens, UniProt O00411); assay type: biochemical
T2 sequence (O00411 42-1230 limits assumed): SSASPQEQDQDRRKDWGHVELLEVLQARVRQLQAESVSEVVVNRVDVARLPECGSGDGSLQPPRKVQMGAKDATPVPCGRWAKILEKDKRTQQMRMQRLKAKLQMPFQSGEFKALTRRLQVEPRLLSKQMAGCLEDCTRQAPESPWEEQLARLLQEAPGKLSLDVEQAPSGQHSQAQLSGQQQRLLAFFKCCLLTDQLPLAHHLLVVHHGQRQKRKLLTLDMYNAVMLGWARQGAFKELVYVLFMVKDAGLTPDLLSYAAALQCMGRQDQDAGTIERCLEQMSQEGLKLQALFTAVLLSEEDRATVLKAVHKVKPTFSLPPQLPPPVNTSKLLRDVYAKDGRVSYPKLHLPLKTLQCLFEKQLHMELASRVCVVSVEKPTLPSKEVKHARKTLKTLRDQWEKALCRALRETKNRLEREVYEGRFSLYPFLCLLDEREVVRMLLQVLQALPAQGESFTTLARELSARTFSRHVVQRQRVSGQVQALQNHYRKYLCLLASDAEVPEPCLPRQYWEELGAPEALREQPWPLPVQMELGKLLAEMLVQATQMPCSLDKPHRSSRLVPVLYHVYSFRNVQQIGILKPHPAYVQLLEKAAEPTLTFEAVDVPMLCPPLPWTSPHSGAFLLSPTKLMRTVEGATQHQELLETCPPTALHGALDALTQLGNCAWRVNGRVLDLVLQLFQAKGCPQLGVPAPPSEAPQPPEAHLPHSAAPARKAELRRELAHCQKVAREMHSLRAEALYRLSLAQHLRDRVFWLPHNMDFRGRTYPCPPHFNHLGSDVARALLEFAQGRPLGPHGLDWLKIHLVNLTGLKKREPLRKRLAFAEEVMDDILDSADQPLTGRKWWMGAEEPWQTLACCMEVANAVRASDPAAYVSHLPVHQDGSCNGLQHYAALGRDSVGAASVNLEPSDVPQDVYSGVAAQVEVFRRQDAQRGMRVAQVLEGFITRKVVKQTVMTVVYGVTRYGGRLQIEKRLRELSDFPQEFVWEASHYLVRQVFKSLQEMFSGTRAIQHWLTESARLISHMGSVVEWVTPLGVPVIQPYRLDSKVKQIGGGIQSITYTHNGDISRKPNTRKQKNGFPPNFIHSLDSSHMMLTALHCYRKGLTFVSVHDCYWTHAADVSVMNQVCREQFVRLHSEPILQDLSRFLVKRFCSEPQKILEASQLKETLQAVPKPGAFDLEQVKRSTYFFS

MERS-CoV RdRp complex [3] = target: T3, MERS-CoV RdRp complex (Middle East respiratory syndrome-related coronavirus, UniProt K9N7C7)
HRV-16 RdRp (3Dpol) = HRV-16 RdRp (3Dpol) (Human rhinovirus 16, UniProt Q82122)
EV-71 RdRp (3Dpol) = EV-71 RdRp (3Dpol) (Enterovirus A71, UniProt E5RPG3)
RSV RdRp complex [4] = target: T4, RSV RdRp complex (Human respiratory syncytial virus A, UniProt P28887)
HMPV RdRp complex = HMPV RdRp complex (Human metapneumovirus, UniProt Q6WB93)
HPIV-3 RdRp complex = HPIV-3 RdRp complex (Human parainfluenza 3 virus, UniProt P12577)
PIV-5 RdRp complex = PIV-5 RdRp complex (Parainfluenza virus 5, UniProt Q88434)
SARS-CoV-2 RdRp complex [5] = target: T5, SARS-CoV-2 RdRp complex (Severe acute respiratory syndrome coronavirus 2, UniProt P0DTD1); conditions: cited from earlier work; for Km: previously reported
LASV RdRp [6] = target: T6, LASV RdRp (Mammarenavirus lassaense, UniProt Q6GWS2)
SARS-CoV RdRp complex = conditions: cited from earlier work
MERS-CoV RdRp complex [7] = target: T3, MERS-CoV RdRp complex; conditions: cited from earlier work
RSV RdRp complex [8] = target: T4, RSV RdRp complex; conditions: cited from earlier work
influenza B RdRp [9] = target: T1, influenza B RdRp; conditions: cited from earlier work
LASV RdRp [10] = target: T6, LASV RdRp; conditions: cited from earlier work
[11] = target: T2, human mitochondrial RNA polymerase (h-mtRNAP); conditions: cited from earlier work
SARS-CoV-2 RdRp = SARS-CoV-2 RdRp (Severe acute respiratory syndrome coronavirus 2, UniProt P0DTD1); assay type: biochemical
MERS-CoV RdRp = MERS-CoV RdRp (Middle East respiratory syndrome-related coronavirus, UniProt K9N7C7); assay type: biochemical
HRV-16 RdRp [12] = target: T7, HRV-16 RdRp (Human rhinovirus 16, UniProt Q82122); assay type: biochemical
EV-71 RdRp [13] = assay type: biochemical
HMPV RdRp = HMPV RdRp (Human metapneumovirus, UniProt Q6WB93); assay type: biochemical
HPIV-3 RdRp = HPIV-3 RdRp (Human parainfluenza 3 virus, UniProt P12577); assay type: biochemical
PIV-5 RdRp = PIV-5 RdRp (Parainfluenza virus 5, UniProt Q88434); assay type: biochemical
HRV-16 RdRp [14] = target: T7, HRV-16 RdRp; assay type: biochemical; remark: listed apart in the source
EV-71 RdRp [15] = assay type: biochemical; remark: listed apart in the source
SARS-CoV-2 RdRp complex [16] = target: T5, SARS-CoV-2 RdRp complex
RSV RdRp = RSV RdRp (Human respiratory syncytial virus A, UniProt P28887); assay type: biochemical
[17] = test system: N#C[C@@]1(c2ccc3c(N)ncnn23)O[C@H](COP(=O)(O)OP(=O)(O)OP(=O)(O)O)[C@@H](O)[C@H]1O; test: purified protein, by the assay type; conditions: pH 8.0
[18] = test system: Nc1ncnc2c1ncn2[C@@H]1O[C@H](COP(=O)(O)OP(=O)(O)OP(=O)(O)O)[C@@H](O)[C@H]1O; test: purified protein, by the assay type; conditions: pH 8.0
[19] = SARS-CoV-2 RdRp, ref Gordon et al. ([45])

Nc1ncnc2c1ncn2[C@@H]1O[C@H](COP(=O)(O)OP(=O)(O)OP(=O)(O)O)[C@@H](O)[C@H]1O [ATP]
Vmax (product fraction) (influenza B RdRp [1]): 0.68 ± 0.014
Km [2]: 0.096 ± 0.0091 µM
Vmax (product fraction) [2]: 0.93 ± 0.026
Vmax (product fraction) (MERS-CoV RdRp complex [3]): 0.84 ± 0.0090
Vmax (product fraction) (HRV-16 RdRp (3Dpol)): 0.90 ± 0.017
Vmax (product fraction) (EV-71 RdRp (3Dpol)): 0.96 ± 0.021
Vmax (product fraction) (RSV RdRp complex [4]): 0.61 ± 0.065
Vmax (product fraction) (HMPV RdRp complex): 0.60 ± 0.024 and 0.39 ± 0.028
Vmax (product fraction) (HPIV-3 RdRp complex): 0.63 ± 0.025
Vmax (product fraction) (PIV-5 RdRp complex): 0.74 ± 0.026
Km (SARS-CoV-2 RdRp complex [5]; [19]): 0.03 ± 0.003 µM
Vmax (product fraction) (LASV RdRp [6]): 0.80 ± 0.0037
Km (SARS-CoV RdRp complex): 0.03 ± 0.003 µM
Vmax (product fraction) (SARS-CoV RdRp complex): 0.73 ± 0.017
Km (MERS-CoV RdRp complex [7]): 0.017 ± 0.019 µM
Vmax (product fraction) (MERS-CoV RdRp complex [7]): 0.47 ± 0.011
Km (RSV RdRp complex [8]): 0.17 ± 0.023 µM
Vmax (product fraction) (RSV RdRp complex [8]): 0.76 ± 0.022
Vmax (product fraction) (influenza B RdRp [9]): 0.73 ± 0.014
Km (LASV RdRp [10]): 0.11 ± 0.02 µM
Vmax (product fraction) (LASV RdRp [10]): 0.57 ± 0.032
Km [11]: 0.05 ± 0.0037 µM
Vmax (product fraction) [11]: 0.98 ± 0.018

N#C[C@@]1(c2ccc3c(N)ncnn23)O[C@H](COP(=O)(O)OP(=O)(O)OP(=O)(O)O)[C@@H](O)[C@H]1O [GS-443902]
Vmax (product fraction) (influenza B RdRp [1]): 0.18 ± 0.0057
Vmax (product fraction) [2]: 0.67 ± 0.22
Pattern of inhibition of RNA primer extension after incorporation at position i (SARS-CoV-2 RdRp): intermediate product at position “i + 3”
Vmax (product fraction) of UTP incorporation at i + 1 (SARS-CoV-2 RdRp): 1.13 ± 0.047
Vmax (product fraction) of UTP incorporation at i + 1 (MERS-CoV RdRp): 0.98 ± 0.018
Pattern of inhibition of RNA primer extension after incorporation at position i (HRV-16 RdRp [12]): intermediate product at position “i + 3”
Vmax (product fraction) of UTP incorporation at i + 1 (HRV-16 RdRp [12]): 0.67 ± 0.015
Pattern of inhibition of RNA primer extension after incorporation at position i (EV-71 RdRp [13]): intermediate product at position “i + 3”
Vmax (product fraction) of UTP incorporation at i + 1 (EV-71 RdRp [13]): 0.48 ± 0.005
Vmax (product fraction) of UTP incorporation at i + 1 (HMPV RdRp): 0.28 ± 0.018
Vmax (product fraction) of UTP incorporation at i + 1 (HPIV-3 RdRp): 0.58 ± 0.011
Vmax (product fraction) of UTP incorporation at i + 1 (PIV-5 RdRp): 0.48 ± 0.0089
Inhibition (fold) vs Template A (HRV-16 RdRp [14]): ~8 fold and 7.8 fold
UTP (HRV-16 RdRp [14]): 3.9 µM
Inhibition (fold) of UTP incorporation across embedded analog (EV-71 RdRp [15]): ~16 fold
Vmax (product fraction) (SARS-CoV-2 RdRp complex [16]): 0.88 ± 0.015
Vmax (product fraction) (MERS-CoV RdRp complex [3]): 0.90 ± 0.012
Vmax (product fraction) (HRV-16 RdRp (3Dpol)): 0.96 ± 0.015 and 0.80 ± 0.021
Vmax (product fraction) (EV-71 RdRp (3Dpol)): 0.93 ± 0.027 and 0.93 ± 0.019
Vmax (product fraction) (RSV RdRp complex [4]): 0.80 ± 0.059
Selectivity (fold), Vmax/Km ATP over Vmax/Km analog (HMPV RdRp complex): 6.7 fold and 6.71 fold
Vmax (product fraction) (HMPV RdRp complex): 0.57 ± 0.045 and 0.53 ± 0.027
Selectivity (fold), Vmax/Km ATP over Vmax/Km analog (HPIV-3 RdRp complex): 7.20 fold
Vmax (product fraction) (HPIV-3 RdRp complex): 0.63 ± 0.010 and 0.78 ± 0.012
Selectivity (fold), Vmax/Km ATP over Vmax/Km analog (PIV-5 RdRp complex): 8.3 fold and 8.31 fold
Vmax (product fraction) (PIV-5 RdRp complex): 0.77 ± 0.042 and 0.69 ± 0.013
Km (SARS-CoV-2 RdRp complex [5]; [19]): 0.0089 ± 0.002 µM
Selectivity (fold), Vmax/Km ATP over Vmax/Km analog (SARS-CoV-2 RdRp complex [5]; [19]): 0.28 ^d fold
Vmax (product fraction) (SARS-CoV-2 RdRp complex [5]): 0.74 ± 0.023
Vmax (product fraction) (LASV RdRp [6]): 0.29 ± 0.091
Km (SARS-CoV RdRp complex): 0.01 ± 0.0008 µM
Selectivity (fold), Vmax/Km ATP over Vmax/Km analog (SARS-CoV RdRp complex): 0.32 ^d fold
Vmax (product fraction) (SARS-CoV RdRp complex): 0.70 ± 0.015
Km (MERS-CoV RdRp complex [7]): 0.0063 ± 0.0006 µM
Selectivity (fold), Vmax/Km ATP over Vmax/Km analog (MERS-CoV RdRp complex [7]): 0.35 ^d fold
Vmax (product fraction) (MERS-CoV RdRp complex [7]): 0.50 ± 0.012
Selectivity (fold), Vmax/Km ATP over Vmax/Km analog (RSV RdRp complex [8]; RSV RdRp, ref Tchesnokov et al. ([47])): 2.7 fold and 2.73 ^e fold
Km (RSV RdRp complex [8]): 0.5 ± 0.089 µM
Vmax (product fraction) (RSV RdRp complex [8]): 0.82 ± 0.027
Selectivity (fold), Vmax/Km ATP over Vmax/Km analog (influenza B RdRp [9]; FluB RdRp, ref Gordon et al. ([45])): 68 ^d fold
Vmax (product fraction) (influenza B RdRp [9]): 0.45 ± 0.0064
Km (LASV RdRp [10]): 1.3 ± 0.18 µM
Selectivity (fold), Vmax/Km ATP over Vmax/Km analog (LASV RdRp [10]): 20 ^d fold
Vmax (product fraction) (LASV RdRp [10]): 0.35 ± 0.016
Km [11]: 21 ± 0.096 µM
Vmax (product fraction) [11]: 0.81 ± 0.013
Selectivity (fold), Vmax/Km ATP over Vmax/Km analog ([11]; h-mtRNAP, ref Tchesnokov et al. ([47])): 503 ^e fold

AMP
Vmax (product fraction) of UTP incorporation at i + 1 (MERS-CoV RdRp): 1.03 ± 0.016
Vmax (product fraction) of UTP incorporation at i + 1 (HRV-16 RdRp [12]): 0.76 ± 0.015
Vmax (product fraction) of UTP incorporation at i + 1 (EV-71 RdRp [13]): 0.65 ± 0.003
Vmax (product fraction) of UTP incorporation at i + 1 (RSV RdRp): 0.70 ± 0.037
Vmax (product fraction) of UTP incorporation at i + 1 (HMPV RdRp): 0.48 ± 0.026
Vmax (product fraction) of UTP incorporation at i + 1 (HPIV-3 RdRp): 0.56 ± 0.0097
Vmax (product fraction) of UTP incorporation at i + 1 (PIV-5 RdRp): 0.51 ± 0.022

EV-71 RdRp (3Dpol) (Enterovirus A71)
Km [17]: 0.86 ± 0.081 µM
Km [18]: 0.96 ± 0.066 µM

HMPV RdRp complex (Human metapneumovirus CAN97-83)
Km [17]: 42.19 ± 7.79 µM

HPIV-3 RdRp complex (Human parainfluenza 3 virus (strain NIH 47885))
Km [17]: 0.44 ± 0.040 µM
Km [18]: 0.061 ± 0.015 µM

HRV-16 RdRp (3Dpol) (rhinovirus A16)
Km [17]: 4.96 ± 0.27 µM
Km [18]: 4.52 ± 0.31 µM

LASV RdRp (Lassa virus Josiah)
Km [18]: 0.39 ± 0.075 µM

MERS-CoV RdRp complex (Betacoronavirus England 1)
Km [18]: 0.032 ± 0.0014 µM

PIV-5 RdRp complex (Simian virus 5 (strain W3))
Km [17]: 13 ± 2.3 µM
Km [18]: 1.5 ± 0.25 µM

RSV RdRp complex (Human respiratory syncytial virus A2)
Km [18]: 0.97 ± 0.36 µM

SARS-CoV-2 RdRp complex (Severe acute respiratory syndrome coronavirus 2)
Km [18]: 0.057 ± 0.0078 µM

From paper PMC11345399 (The Journal of Biological Chemistry, 2024)
